Data reported in patent US8846949B2, “Pyrrolopyrazoles as N-type calcium channel blockers” (Janssen Pharmaceutica NV, priority 2012, dated 2014).
Like-named read-outs stand apart in the source and are kept apart here.

How the values were obtained:
[1] = molecular target: T1, N-type calcium channel α1B (Cav2.2), β3 and α2δ subunits (Homo sapiens, UniProt Q00975); test: Functional assay, antagonism of N-type calcium channel (FDSS calcium mobilization response to KCl depolarization); format: cell-based; details: for IC50: HEK stable cell line, 50 mM KCl depolarization, six-point concentration-response; for inhibition at 0.33 µM: 0.33 μM compound, FDSS, 50 mM KCl
T1 construct: expressed in transfected cells
T1 sequence (Q00975 whole entry): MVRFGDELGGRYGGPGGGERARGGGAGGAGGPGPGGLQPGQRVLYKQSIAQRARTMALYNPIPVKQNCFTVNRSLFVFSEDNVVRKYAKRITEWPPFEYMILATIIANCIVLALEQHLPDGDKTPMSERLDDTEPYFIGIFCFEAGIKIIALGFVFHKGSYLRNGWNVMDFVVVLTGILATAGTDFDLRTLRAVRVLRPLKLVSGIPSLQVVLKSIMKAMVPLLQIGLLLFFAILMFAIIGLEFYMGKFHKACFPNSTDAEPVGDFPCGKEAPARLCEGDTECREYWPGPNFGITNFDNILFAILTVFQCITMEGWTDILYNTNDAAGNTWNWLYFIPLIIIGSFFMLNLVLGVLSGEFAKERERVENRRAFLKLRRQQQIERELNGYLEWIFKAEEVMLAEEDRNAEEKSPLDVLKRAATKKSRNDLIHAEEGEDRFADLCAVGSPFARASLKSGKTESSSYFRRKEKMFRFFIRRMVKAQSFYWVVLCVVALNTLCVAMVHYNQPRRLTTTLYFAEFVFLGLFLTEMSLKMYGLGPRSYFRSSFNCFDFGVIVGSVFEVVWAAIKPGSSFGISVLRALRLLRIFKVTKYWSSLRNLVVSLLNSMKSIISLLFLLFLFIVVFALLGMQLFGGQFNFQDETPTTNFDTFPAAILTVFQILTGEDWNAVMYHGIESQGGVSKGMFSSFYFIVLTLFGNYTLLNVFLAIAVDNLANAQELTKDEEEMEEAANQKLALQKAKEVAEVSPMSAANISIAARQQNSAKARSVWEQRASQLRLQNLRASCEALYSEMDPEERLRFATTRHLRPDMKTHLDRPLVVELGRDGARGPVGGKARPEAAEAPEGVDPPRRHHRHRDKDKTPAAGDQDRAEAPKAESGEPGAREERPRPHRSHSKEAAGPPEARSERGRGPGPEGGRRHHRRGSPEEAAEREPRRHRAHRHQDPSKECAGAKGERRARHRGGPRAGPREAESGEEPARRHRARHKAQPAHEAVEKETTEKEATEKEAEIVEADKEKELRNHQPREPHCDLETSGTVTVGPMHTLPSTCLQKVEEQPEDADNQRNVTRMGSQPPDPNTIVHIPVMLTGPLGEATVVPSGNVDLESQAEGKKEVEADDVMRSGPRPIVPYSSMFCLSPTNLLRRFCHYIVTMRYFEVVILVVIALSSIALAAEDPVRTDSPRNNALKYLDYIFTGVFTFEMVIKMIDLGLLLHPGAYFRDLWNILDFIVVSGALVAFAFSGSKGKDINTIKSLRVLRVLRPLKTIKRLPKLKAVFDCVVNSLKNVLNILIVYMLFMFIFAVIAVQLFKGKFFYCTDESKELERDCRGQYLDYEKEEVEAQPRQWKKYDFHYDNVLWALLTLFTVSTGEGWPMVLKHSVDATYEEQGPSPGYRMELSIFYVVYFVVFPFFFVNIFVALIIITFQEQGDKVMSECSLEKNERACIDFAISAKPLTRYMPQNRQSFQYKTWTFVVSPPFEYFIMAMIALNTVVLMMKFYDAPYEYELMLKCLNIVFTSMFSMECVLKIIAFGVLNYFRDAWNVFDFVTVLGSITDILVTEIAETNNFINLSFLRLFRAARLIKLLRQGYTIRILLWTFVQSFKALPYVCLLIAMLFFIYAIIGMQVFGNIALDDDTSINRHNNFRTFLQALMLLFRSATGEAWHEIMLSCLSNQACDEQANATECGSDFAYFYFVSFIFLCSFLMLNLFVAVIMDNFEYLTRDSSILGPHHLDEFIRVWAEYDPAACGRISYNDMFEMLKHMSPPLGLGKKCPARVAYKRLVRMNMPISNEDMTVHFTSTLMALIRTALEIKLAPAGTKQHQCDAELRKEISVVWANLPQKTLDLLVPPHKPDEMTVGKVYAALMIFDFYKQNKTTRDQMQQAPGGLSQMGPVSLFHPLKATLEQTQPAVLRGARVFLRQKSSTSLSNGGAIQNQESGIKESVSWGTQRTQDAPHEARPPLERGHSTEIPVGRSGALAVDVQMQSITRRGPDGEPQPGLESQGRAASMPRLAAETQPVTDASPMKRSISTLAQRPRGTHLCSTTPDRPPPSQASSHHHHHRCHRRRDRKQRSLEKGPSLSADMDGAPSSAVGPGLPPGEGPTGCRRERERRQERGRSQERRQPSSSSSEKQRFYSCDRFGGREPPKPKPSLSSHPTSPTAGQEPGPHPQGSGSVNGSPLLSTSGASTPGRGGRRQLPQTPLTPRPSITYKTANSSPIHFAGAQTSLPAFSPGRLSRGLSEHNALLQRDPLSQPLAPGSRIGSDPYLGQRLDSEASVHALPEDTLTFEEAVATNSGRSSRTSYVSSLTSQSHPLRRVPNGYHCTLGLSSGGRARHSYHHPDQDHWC
T1 sequence (P54284 whole entry partner): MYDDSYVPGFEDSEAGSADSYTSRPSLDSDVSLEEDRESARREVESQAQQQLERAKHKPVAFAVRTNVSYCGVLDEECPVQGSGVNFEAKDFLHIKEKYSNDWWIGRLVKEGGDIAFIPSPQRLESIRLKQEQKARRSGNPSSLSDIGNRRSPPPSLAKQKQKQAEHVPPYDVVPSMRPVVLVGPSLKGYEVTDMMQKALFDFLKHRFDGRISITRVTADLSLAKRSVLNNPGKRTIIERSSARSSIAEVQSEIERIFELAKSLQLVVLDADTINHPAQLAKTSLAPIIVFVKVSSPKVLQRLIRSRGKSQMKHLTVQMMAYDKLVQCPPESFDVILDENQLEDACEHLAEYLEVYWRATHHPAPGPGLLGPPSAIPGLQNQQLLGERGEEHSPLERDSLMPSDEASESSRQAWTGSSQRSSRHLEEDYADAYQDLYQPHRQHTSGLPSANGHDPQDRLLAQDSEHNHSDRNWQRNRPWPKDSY
T1 sequence (P54289 25-956 partner limits assumed): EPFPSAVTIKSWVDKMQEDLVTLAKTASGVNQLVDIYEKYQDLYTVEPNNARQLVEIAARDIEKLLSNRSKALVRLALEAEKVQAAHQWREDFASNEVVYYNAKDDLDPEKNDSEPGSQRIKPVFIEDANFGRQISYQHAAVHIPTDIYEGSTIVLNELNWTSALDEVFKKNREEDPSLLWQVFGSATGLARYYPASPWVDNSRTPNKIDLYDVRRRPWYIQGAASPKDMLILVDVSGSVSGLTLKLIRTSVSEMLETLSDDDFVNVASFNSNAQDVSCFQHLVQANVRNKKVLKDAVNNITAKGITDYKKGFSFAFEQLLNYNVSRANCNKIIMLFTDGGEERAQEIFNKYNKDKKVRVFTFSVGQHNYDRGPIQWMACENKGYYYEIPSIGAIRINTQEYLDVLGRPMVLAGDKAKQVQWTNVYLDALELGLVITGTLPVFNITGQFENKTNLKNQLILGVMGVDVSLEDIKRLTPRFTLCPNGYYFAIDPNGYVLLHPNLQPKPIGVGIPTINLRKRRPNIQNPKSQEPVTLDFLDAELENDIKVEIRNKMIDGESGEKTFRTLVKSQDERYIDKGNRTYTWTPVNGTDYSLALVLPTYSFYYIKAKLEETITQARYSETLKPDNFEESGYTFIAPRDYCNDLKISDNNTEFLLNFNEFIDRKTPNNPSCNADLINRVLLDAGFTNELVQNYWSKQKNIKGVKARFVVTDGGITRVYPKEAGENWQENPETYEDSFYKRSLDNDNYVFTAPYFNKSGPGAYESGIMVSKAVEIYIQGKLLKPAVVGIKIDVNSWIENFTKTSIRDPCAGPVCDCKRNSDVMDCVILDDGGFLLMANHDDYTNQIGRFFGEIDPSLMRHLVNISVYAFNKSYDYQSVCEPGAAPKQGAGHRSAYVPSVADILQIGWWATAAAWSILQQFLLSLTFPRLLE
T1 sequence (P54289 957-1103 partner limits assumed): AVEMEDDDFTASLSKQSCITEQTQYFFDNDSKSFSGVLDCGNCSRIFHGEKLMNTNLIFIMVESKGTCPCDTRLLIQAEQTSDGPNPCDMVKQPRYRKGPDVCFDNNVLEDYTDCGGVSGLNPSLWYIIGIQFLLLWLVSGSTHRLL
In short: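 HEK cells stably co-expressing α1B (Cav2.2), β3 and α2δ subunits were loaded with calcium dye, preincubated with compound for 5 min, then depolarized with 50 mM KCl and read for 3 min by FDSS fluorescence. IC50 from six-point curves, normalized to KCl maximum and buffer minimum.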

[2] = molecular target: T2, N-type calcium channel (Homo sapiens, UniProt Q00975); test: Automated electrophysiology assay (QPatch-HT whole-cell patch clamp); format: cell-based
T2 construct: expressed in transfected cells
T2 sequence (Q00975 whole entry): as the sequence (Q00975 whole entry) above
T2 sequence (P54284 whole entry partner): as the sequence (P54284 whole entry partner) above
T2 sequence (P54289 25-956 partner limits assumed): as the sequence (P54289 25-956 partner limits assumed) above
T2 sequence (P54289 957-1103 partner limits assumed): as the sequence (P54289 957-1103 partner limits assumed) above
Protocol: Cells were grown in T175 flasks to 50%-90% confluence. At the time of use, cells were enzymatically treated with Detachin (Genlantis, San Diego, Calif. USA), centrifuged, rinsed, and resuspended in 293 SFM II media (Life Technologies, Grand Island, N.Y. U.S.A.) supplemented with 25 mM HEPES (Sigma-Aldrich, St. Louis, Mo. U.S.A.) to a concentration of 2-3×10^6 cells/mL. Cells were added to the automated cell preparation station on the QPatch-HT (Sophion Biosciences, North Brunswick, N.J. U.S.A.), and following a 10- to 30-min recovery period with gentle stirring, the assay protocol was initiated. During the automated cell preparation, cells were collected, centrifuged and resuspended in an extracellular (EC) solution containing 132 mM NaCl, 1.8 mM CaCl2, 5.4 mM KCl, 0.8 mM MgCl2, 10 mM glucose, and 10 mM HEPES (pH=7.4), adjusted with sucrose to approximately 315 m0sm. The QPlate was primed with an intracellular solution containing 135 mM CsCl, 10 mM EGTA, 4 MgATP, 0.3 NaGTP, and 20 mM HEPES (pH=7.2), adjusted to approximately 290 m0sm with deionized water and the EC solution. Cells were added to the prepared QPlate wells by robotic pipettes of the QPatch-HT.
For cells determined to be in stable whole-cell patch clamp, the EC solution was replaced with a barium (Ba)/triethylammonium (TEA) solution containing 140 mM TEA-Cl, 10 mM BaCl2, 0.8 mM MgCl2, 10 mM glucose and 10 mM HEPES (pH=7.4). High (40 mM) BaCl2 concentrations were made with adjustments to TEA-C1 (90 mM) to maintain the osmolarity. From a resting potential of −80 mV, a train of depolarizing pulses (15 pulses at 5 Hz, +20 mV) was delivered to the cell once every 30 sec for eight trains (4 min total), and the resulting currents were measured during a control period (no compound). This protocol was repeated for each subsequent addition of control buffer with or without compound (three periods total, each with four trains). The current generated in the 1st and 15th pulses of the last train of each period in the presence of each drug concentration was normalized to the current generated during the control period at the respective pulses (representing low- and high-frequency stimulation, respectively). Data from both the second and third drug application periods were analyzed for each cell. A final addition of Ba/TEA solution containing 60-100 μM CdCl2 was made to block all N-type current and to “zero” the currents for each cell. All buffer/compound additions were made using a “spitting” feature of the QPatch-HT, which added three repetitions of 5 μL solution at the beginning of each recording period.
To examine closed-state inactivation, cells were subjected to a channel-activating 50-msec depolarizing step pulse from −80 to +10 mV, followed by a 5-sec nonactivating step to voltages ranging from −130 to −60 mV in 10 mV increments and then a 50-ms step from −80 to +10 mV to assess the remaining current. Currents from the activating voltage pulse were normalized to the peak value of the test pulse following the −130 mV step and fit to a Boltzman equation to obtain the V1/2. Roscovitine (Sigma-Aldrich) was prepared as a 100 mM stock in dimethyl sulfoxide and diluted to the indicated working concentrations. […]. Compounds of Formula (I) were diluted first into dimethyl sulfoxide and then into 10% pluronic F-127 in water (Life Technologies), sonicated for 1 min and diluted into EC buffer. Vehicle controls were run in parallel in all experiments.
Unless otherwise indicated, statistics for comparing among electrophysiological results utilized a one-way analysis of variance with Fisher's least squares determination test for pair-wise comparison.

[3] = high frequency (15th pulse of train, 5 Hz), read-out: QPatch at High Frequency % Inhibition
[4] = low frequency (1st pulse of train), read-out: QPatch at Low Frequency % Inhibition

Row | IC50 [1] [nM] | inhibition at 0.1 µM [2, 3] [%] | inhibition at 0.1 µM [2, 4] [%] | inhibition at 0.33 µM [1] [%] | inhibition at 1 µM [2, 3] [%] | inhibition at 1 µM [2, 4] [%] | SMILES
1 | 5 | 47 | 37 |  |  |  | CCOc1ccccc1-n1nc2c(c1-c1ccc(Cl)cc1)CN(S(=O)(=O)C1CCCC1)C2 [Cpd 51, 3-(4-Chlorophenyl)-5-(cyclopentylsulfonyl)-2-(2-ethoxyphenyl)-2,4,5,6-tetrahydropyrrolo[3,4-c]pyrazole]
2 | 2 | 50 | 40 |  |  |  | CCOc1ccccc1-n1nc2c(c1-c1ccc(Cl)cc1)CN(S(=O)(=O)C1CCCCC1)C2 [Cpd 52, 3-(4-Chlorophenyl)-5-(cyclohexylsulfonyl)-2-(2-ethoxyphenyl)-2,4,5,6-tetrahydropyrrolo[3,4-c]pyrazole]
3 | 2 | 46 | 36 |  |  |  | CCOc1ccccc1-n1nc2c(c1-c1ccc(Cl)cc1)CN(S(=O)(=O)N(C)C)C2 [Cpd 54, 3-(4-Chlorophenyl)-2-(2-ethoxyphenyl)-N,N-dimethyl-2,6-dihydropyrrolo[3,4-c]pyrazole-5(4H)-sulfonamide]
4 | 7 | 54 | 25 |  |  |  | COc1ccccc1-n1nc2c(c1-c1ccc(Cl)cc1)CN(S(=O)(=O)N1CCCCCC1)C2 [Cpd 55, 5-(Azepan-1-ylsulfonyl)-3-(4-chlorophenyl)-2-(2-methoxyphenyl)-2,4,5,6-tetrahydropyrrolo[3,4-c]pyrazole]
5 | 3 | 36 | 28 |  |  |  | CCN(CC)S(=O)(=O)N1Cc2nn(-c3ccccc3OC)c(-c3ccc(Cl)cc3)c2C1 [Cpd 56, 3-(4-Chlorophenyl)-N,N-diethyl-2-(2-methoxyphenyl)-2,6-dihydropyrrolo[3,4-c]pyrazole-5(4H)-sulfonamide]
6 | 8 |  |  | 95 | 82 | 69 | COc1ccccc1-n1nc2c(c1-c1ccc(Cl)cc1)CN(S(=O)(=O)N1CCC(C)CC1)C2 [Cpd 57, 3-(4-Chlorophenyl)-2-(2-methoxyphenyl)-5-[(4-methylpiperidin-1-yl)sulfonyl]-2,4,5,6-tetrahydropyrrolo[3,4-c]pyrazole]
7 | 5 | 52 | 53 |  |  |  | COC(=O)C1CCN(S(=O)(=O)N2Cc3nn(-c4ccccc4OC)c(-c4ccc(Cl)cc4)c3C2)CC1 [Cpd 58, Methyl 1-{[3-(4-chlorophenyl)-2-(2-methoxyphenyl)-2,6-dihydropyrrolo[3,4-c]pyrazol-5(4H)-yl]sulfonyl}piperidine-4-carboxylate]
8 | 2 | 51 | 28 |  |  |  | COc1ccccc1-n1nc2c(c1-c1ccc(Cl)cc1)CN(S(=O)(=O)N1CCOCC1)C2 [Cpd 59, 3-(4-Chlorophenyl)-2-(2-methoxyphenyl)-5-(morpholin-4-ylsulfonyl)-2,4,5,6-tetrahydropyrrolo[3,4-c]pyrazole]
9 | 2 | 44 | 29 |  |  |  | COc1ccccc1-n1nc2c(c1-c1ccc(Cl)cc1)CN(S(=O)(=O)N1CCCC1)C2 [Cpd 60, 3-(4-Chlorophenyl)-2-(2-methoxyphenyl)-5-(pyrrolidin-1-ylsulfonyl)-2,4,5,6-tetrahydropyrrolo[3,4-c]pyrazole]
10 | 4 | 45 | 20 |  |  |  | COc1ccccc1-n1nc2c(c1-c1ccc(Cl)cc1)CN(S(=O)(=O)N1CCCCC1)C2 [Cpd 62, 3-(4-Chlorophenyl)-2-(2-methoxyphenyl)-5-(piperidin-1-ylsulfonyl)-2,4,5,6-tetrahydropyrrolo[3,4-c]pyrazole]
11 | 33 | 24 | 12 | 86 |  |  | COc1cc(Cl)ccc1-n1nc2c(c1-c1ccc(Cl)cc1)CN(S(=O)(=O)C(C)C)C2 [Cpd 64, 2-(4-Chloro-2-methoxyphenyl)-3-(4-chlorophenyl)-5-[(1-methylethyl)sulfonyl]-2,4,5,6-tetrahydropyrrolo[3,4-c]pyrazole]
12 | 150 | 1 | -8 | 74 |  |  | COc1cc(Cl)ccc1-n1nc2c(c1-c1ccc(Cl)cc1)CN(S(=O)(=O)N(C)C)C2 [Cpd 65, 2-(4-Chloro-2-methoxyphenyl)-3-(4-chlorophenyl)-N,N-dimethyl-2,6-dihydropyrrolo[3,4-c]pyrazole-5(4H)-sulfonamide]
13 | 21 | 1 | -30 | 91 |  |  | COc1cc(F)ccc1-n1nc2c(c1-c1ccc(Cl)cc1)CN(S(=O)(=O)C(C)C)C2 [Cpd 71, 3-(4-Chlorophenyl)-2-(4-fluoro-2-methoxyphenyl)-5-[(1-methylethyl)sulfonyl]-2,4,5,6-tetrahydropyrrolo[3,4-c]pyrazole]
14 | 24 | -28 | -34 | 93 |  |  | COc1cc(F)ccc1-n1nc2c(c1-c1ccc(Cl)cc1)CN(S(=O)(=O)N1CCC(C)CC1)C2 [Cpd 73, 3-(4-Chlorophenyl)-2-(4-fluoro-2-methoxyphenyl)-5-[(4-methylpiperidin-1-yl)sulfonyl]-2,4,5,6-tetrahydropyrrolo[3,4-c]pyrazole]
15 | 21 |  |  | 90 | 30 | -3 | CCCC(C)S(=O)(=O)N1Cc2nn(-c3ccc(C)cc3OC)c(-c3ccc(Cl)cc3)c2C1 (stereo not drawn) [Cpd 76, 3-(4-Chlorophenyl)-2-(2-methoxy-4-methylphenyl)-5-[(1-methylbutyl)sulfonyl]-2,4,5,6-tetrahydropyrrolo[3,4-c]pyrazole]
16 | 20 |  | -19 | 89 |  |  | CC(C)S(=O)(=O)N1Cc2nn(-c3cccc4c3OCO4)c(-c3ccc(Cl)cc3)c2C1 [Cpd 81, 2-(1,3-Benzodioxol-4-yl)-3-(4-chlorophenyl)-5-[(1-methylethyl)sulfonyl]-2,4,5,6-tetrahydropyrrolo[3,4-c]pyrazole]
17 | 28 | 15 | 4 | 87 |  |  | CC(C)CS(=O)(=O)N1Cc2nn(-c3cccc4c3OCO4)c(-c3ccc(Cl)cc3)c2C1 [Cpd 82, 2-(1,3-Benzodioxol-4-yl)-3-(4-chlorophenyl)-5-[(2-methylpropyl)sulfonyl]-2,4,5,6-tetrahydropyrrolo[3,4-c]pyrazole]
18 | 20 | 27 | 12 | 92 |  |  | CC1CCN(S(=O)(=O)N2Cc3nn(-c4cccc5c4OCO5)c(-c4ccc(Cl)cc4)c3C2)CC1 [Cpd 83, 2-(1,3-Benzodioxol-4-yl)-3-(4-chlorophenyl)-5-[(4-methylpiperidin-1-yl)sulfonyl]-2,4,5,6-tetrahydropyrrolo[3,4-c]pyrazole]
19 | 10 | 7 | -3 | 94 |  |  | CC(C)S(=O)(=O)N1Cc2nn(-c3cccc4c3OCC4)c(-c3ccc(Cl)cc3)c2C1 [Cpd 84, 3-(4-Chlorophenyl)-2-(2,3-dihydro-1-benzofuran-7-yl)-5-[(1-methylethyl)sulfonyl]-2,4,5,6-tetrahydropyrrolo[3,4-c]pyrazole]
